Experiments:
[1] = test system: BA/F3 (insSVD) cells; test: Ba/F3-EGFR-insSVD cell survival assay (Cell Titer-Glo); assay type: cell-based; settings: Mus musculus, BaF3, 48 h, Table 3a, cell survival, Cell Titer-Glo, with 10 ng/ml EGF, without IL-3
How it was run: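 CellTiter-Glo luminescence read after 48 h compound exposure at 37° C. Cells: IL-3-independent Ba/F3 lines transduced with EGFR-insSVD or EGFR-insSVD T790M, maintained on 10 ng/ml EGF and seeded at 4000 per well.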

[2] = biological target: T1, mutEGFR (D770_N771insSVD) (Homo sapiens, UniProt P00533, DUP768-770); test: Exon20-Mutant-EGFR (D770_N771insSVD) kinase assay (TR-FRET); assay type: biochemical; settings: mutEGFR (D770_N771insSVD) kinase assay IC50, Table 2a; D770_N771insSVD; 2 mM ATP
T1 construct: GST-EGFR #3 (SVD between D770 and N771); made in house; host or cells: Sf9 insect cells (baculovirus)

[3] = biological target: T2, mutEGFR (D770_N771insNPG, T790) (Homo sapiens, UniProt P00533, INS770NPG/T790M); test: mutEGFR (D770_N771insNPG, T790) kinase assay; assay type: biochemical; settings: Table 2a, D770_N771insNPG
T2 construct: exact insNPG construct not described; in-house EGFR proteins were N-terminal GST fusions from baculovirus/insect cells (borders R669-A1210 given only for WT, insSVD, insASV)
From the text: The different EGFR proteins used in the biochemical kinase activity inhibition assays were generated inhouse by expression in insect cells using Baculo Virus system and subsequent purification as described in the following paragraphs.
The cDNAs encoding the various protein sequences from human EGFR human (P00533) were optimized for expression in eukaryotic cells and synthesized by the GeneArt Technology at Life Technologies.

T2 sequence (P00533 with tags, fused parts or gaps INS770NPG/T790M limits assumed): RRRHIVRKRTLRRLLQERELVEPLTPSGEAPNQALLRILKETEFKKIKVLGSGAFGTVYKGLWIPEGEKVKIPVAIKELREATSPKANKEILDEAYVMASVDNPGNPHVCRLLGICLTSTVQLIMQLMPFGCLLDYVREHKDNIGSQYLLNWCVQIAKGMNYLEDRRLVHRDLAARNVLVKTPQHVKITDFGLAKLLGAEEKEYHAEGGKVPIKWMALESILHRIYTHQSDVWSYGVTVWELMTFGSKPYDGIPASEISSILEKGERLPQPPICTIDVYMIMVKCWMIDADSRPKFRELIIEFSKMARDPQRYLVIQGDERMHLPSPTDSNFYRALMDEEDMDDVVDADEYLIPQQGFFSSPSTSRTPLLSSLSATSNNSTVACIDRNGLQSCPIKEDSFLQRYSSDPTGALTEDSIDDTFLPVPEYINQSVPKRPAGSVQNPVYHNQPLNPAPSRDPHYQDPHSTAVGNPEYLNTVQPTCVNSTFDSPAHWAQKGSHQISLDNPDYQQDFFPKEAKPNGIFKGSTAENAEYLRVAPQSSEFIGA
T1 sequence (P00533 with tags, fused parts or gaps DUP768-770): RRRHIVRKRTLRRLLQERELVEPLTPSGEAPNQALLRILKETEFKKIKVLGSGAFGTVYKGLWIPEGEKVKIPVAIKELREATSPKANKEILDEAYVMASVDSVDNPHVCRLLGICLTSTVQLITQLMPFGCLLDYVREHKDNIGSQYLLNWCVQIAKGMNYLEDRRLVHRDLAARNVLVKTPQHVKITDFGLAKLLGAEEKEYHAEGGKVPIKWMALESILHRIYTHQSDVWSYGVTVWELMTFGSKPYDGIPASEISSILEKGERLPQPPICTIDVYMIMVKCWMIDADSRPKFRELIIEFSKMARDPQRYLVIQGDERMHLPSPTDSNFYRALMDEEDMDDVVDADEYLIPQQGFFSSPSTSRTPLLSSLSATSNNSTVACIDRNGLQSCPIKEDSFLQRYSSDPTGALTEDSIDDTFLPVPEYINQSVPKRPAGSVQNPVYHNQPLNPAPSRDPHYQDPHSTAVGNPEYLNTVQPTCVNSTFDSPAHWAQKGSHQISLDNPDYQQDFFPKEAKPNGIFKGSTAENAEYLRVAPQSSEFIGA

| SMILES | IC50 [1] [nM] | IC50 [2] [nM] | IC50 [3] [nM] |
| --- | --- | --- | --- |
| CN(C)CC#CC(=O)N1CCn2nc(-c3ccc(Cl)cc3F)c(-c3ccncc3)c2C1 [Example 72, 1-[2-(4-chloro-2-fluorophenyl)-3-(pyridin-4-yl)-6,7-dihydropyrazolo[1,5-a]pyrazin-5(4H)-yl]-4-(dimethylamino)but-2-yn-1-one] | 17.9 | 0.211 | 0.3 |
| O=C(/C=C/CF)N1CCn2nc(-c3ccc(Cl)cc3F)c(-c3ccncc3)c2C1 [Example 73, (2E)-1-[2-(4-chloro-2-fluorophenyl)-3-(pyridin-4-yl)-6,7-dihydropyrazolo[1,5-a]pyrazin-5(4H)-yl]-4-fluorobut-2-en-1-one] | 61 | 1.09 | 5.1 |
| O=C(/C=C/C(F)F)N1CCn2nc(-c3ccc(Cl)cc3F)c(-c3ccncc3)c2C1 [Example 74, (2E)-1-[2-(4-chloro-2-fluorophenyl)-3-(pyridin-4-yl)-6,7-dihydropyrazolo[1,5-a]pyrazin-5(4H)-yl]-4,4-difluorobut-2-en-1-one] | 34 | 0.183 | 0.807 |
| O=C(/C=C/Cl)N1CCn2nc(-c3ccc(Cl)cc3F)c(-c3ccncc3)c2C1 [Example 75, (2E)-3-chloro-1-[2-(4-chloro-2-fluorophenyl)-3-(pyridin-4-yl)-6,7-dihydropyrazolo[1,5-a]pyrazin-5(4H)-yl]prop-2-en-1-one] | 135 | 0.197 | 0.995 |
| CN1CC=C(C(=O)N2CCn3nc(-c4ccc(Cl)cc4F)c(-c4ccncc4)c3C2)C1 [Example 76, [2-(4-chloro-2-fluorophenyl)-3-(pyridin-4-yl)-6,7-dihydropyrazolo[1,5-a]pyrazin-5(4H)-yl](1-methyl-2,5-dihydro-1H-pyrrol-3-yl) methanone] | 666 | 30.3 | 77.3 |
| O=C(/C=C/CN1CCC1)N1CCn2nc(-c3ccc(Cl)cc3F)c(-c3ccncc3)c2C1 [Example 77, (2E)-4-(azetidin-1-yl)-1-[2-(4-chloro-2-fluorophenyl)-3-(pyridin-4-yl)-6,7-dihydropyrazolo[1,5-a]pyrazin-5(4H)-yl]but-2-en-1-one] | 25.9 | 0.347 | 1.6 |
| O=C(/C=C/CF)N1CCn2nc(-c3ccc(F)cc3)c(-c3ccncc3)c2C1 [Example 78, (2E)-4-fluoro-1-[2-(4-fluorophenyl)-3-(pyridin-4-yl)-6,7-dihydropyrazolo[1,5-a]pyrazin-5(4H)-yl]but-2-en-1-one] | 115 | 3.86 | 15.4 |
| O=C(/C=C/CN1CCCC1)N1CCn2nc(-c3ccc(F)cc3)c(-c3ccncc3)c2C1 [Example 79, (2E)-1-[2-(4-fluorophenyl)-3-(pyridin-4-yl)-6,7-dihydropyrazolo[1,5-a]pyrazin-5(4H)-yl]-4-(pyrrolidin-1-yl) but-2-en-1-one] | 62.9 | 1.47 | 2.51 |
| CO[C@H]1CCN(C/C=C/C(=O)N2CCn3nc(-c4ccc(F)cc4)c(-c4ccncc4)c3C2)C1 [Example 83, (2E)-1-[2-(4-fluorophenyl)-3-(pyridin-4-yl)-6,7-dihydropyrazolo[1,5-a]pyrazin-5(4H)-yl]-4-[(3S)-3-methoxypyrrolidin-1-yl]but-2-en-1-one] | 132 | 0.976 | 3.53 |
| O=C(/C=C/CN1CC(F)(F)C1)N1CCn2nc(-c3ccc(F)cc3)c(-c3ccncc3)c2C1 [Example 84, (2E)-4-(3,3-difluoroazetidin-1-yl)-1-[2-(4-fluorophenyl)-3-(pyridin-4-yl)-6,7-dihydropyrazolo[1,5-a]pyrazin-5(4H)-yl]but-2-en-1-one] | 1230 | 13.4 | 50.6 |
| O=C(C#CCN1CCOCC1)N1CCn2nc(-c3ccc(Cl)cc3F)c(-c3ccncc3)c2C1 [Example 85, 1-[2-(4-chloro-2-fluorophenyl)-3-(pyridin-4-yl)-6,7-dihydropyrazolo[1,5-a]pyrazin-5(4H)-yl]-4-(morpholin-4-yl) but-2-yn-1-one] | 34.6 | 0.731 | 2.43 |
| CC(C)(C)OC(=O)NC1(C#CC(=O)N2CCn3nc(-c4ccc(F)cc4)c(-c4ccncc4)c3C2)CC1 [Example 86, tert-butyl (1-{3-[2-(4-fluorophenyl)-3-(pyridin-4-yl)-6,7-dihydropyrazolo[1,5-a]pyrazin-5(4H)-yl]-3-oxoprop-1-yn-1-yl}cyclopropyl) carbamate] | 971 | 122 | 237 |
| NC1(C#CC(=O)N2CCn3nc(-c4ccc(F)cc4)c(-c4ccncc4)c3C2)CC1 [Example 89, 3-(1-aminocyclopropyl)-1-[2-(4-fluorophenyl)-3-(pyridin-4-yl)-6,7-dihydropyrazolo[1,5-a]pyrazin-5(4H)-yl]prop-2-yn-1-one] | 5060 | 6.06 | 8.7 |
| CC(C)(C)OC(=O)NCC#CC(=O)N1CCn2nc(-c3ccc(F)cc3)c(-c3ccncc3)c2C1 [Example 90, tert-butyl {4-[2-(4-fluorophenyl)-3-(pyridin-4-yl)-6,7-dihydropyrazolo[1,5-a]pyrazin-5(4H)-yl]-4-oxobut-2-yn-1-yl}carbamate] | 166 | 2.08 | 5.34 |
| NCC#CC(=O)N1CCn2nc(-c3ccc(F)cc3)c(-c3ccncc3)c2C1 [Example 91, 4-amino-1-[2-(4-fluorophenyl)-3-(pyridin-4-yl)-6,7-dihydropyrazolo[1,5-a]pyrazin-5(4H)-yl]but-2-yn-1-one] | 1410 | 26.3 | 52.8 |
| C=CC(=O)N1CCn2nc(Nc3ccc(Cl)cc3F)c(-c3ccnc4[nH]cc(C)c34)c2C1 [Example 92, 1-[2-(4-chloro-2-fluoroanilino)-3-(3-methyl-1H-pyrrolo[2,3-b]pyridin-4-yl)-6,7-dihydropyrazolo[1,5-a]pyrazin-5(4H)-yl]prop-2-en-1-one] | 125 | 24.6 | 53.6 |
| C=CC(=O)N1CCn2nc(Nc3ccc(C(F)(F)F)cc3)c(-c3ccnc4[nH]cc(C)c34)c2C1 [Example 94, 1-[3-(3-methyl-1H-pyrrolo[2,3-b]pyridin-4-yl)-2-[4-(trifluoromethyl)anilino]-6,7-dihydropyrazolo[1,5-a]pyrazin-5(4H)-yl]prop-2-en-1-one] | 2760 | 213 | 403 |
| C=CC(=O)N1CCn2nc(Nc3ccc(Cl)cc3F)c(-c3ccncc3)c2C1 [Example 95, 1-[2-(4-chloro-2-fluoroanilino)-3-(pyridin-4-yl)-6,7-dihydropyrazolo[1,5-a]pyrazin-5(4H)-yl]prop-2-en-1-one] | 1210 | 40.6 | 99.5 |
| C=CC(=O)N1CCn2nc(Nc3ccc(OC)c(F)c3)c(-c3ccncc3)c2C1 [Example 96, 1-[2-(3-fluoro-4-methoxyanilino)-3-(pyridin-4-yl)-6,7-dihydropyrazolo[1,5-a]pyrazin-5(4H)-yl]prop-2-en-1-one] | 7930 | 2030 | 7960 |
| C=CC(=O)N1CCn2nc(Nc3ccc(C(F)(F)F)cc3)c(-c3ccncc3)c2C1 [Example 97, 1-[3-(pyridin-4-yl)-2-[4-(trifluoromethyl)anilino]-6,7-dihydropyrazolo[1,5-a]pyrazin-5(4H)-yl]prop-2-en-1-one] | 4360 | 626 | 3800 |
| CN(C)C/C=C/C(=O)N1CCn2nc(-c3ccc(F)cc3)c(-c3ccnc4[nH]ccc34)c2C1 [Example 98, (2E)-4-(dimethylamino)-1-[2-(4-fluorophenyl)-3-(1H-pyrrolo[2,3-b]pyridin-4-yl)-6,7-dihydropyrazolo[1,5-a]pyrazin-5(4H)-yl]but-2-en-1-one] | 209 | 10.4 | 11.6 |
| Cc1ccc(-c2nn3c(c2-c2ccnc4[nH]ccc24)CN(C(=O)/C=C/CN(C)C)CC3)c(F)c1 [Example 99, (2E)-4-(dimethylamino)-1-[2-(2-fluoro-4-methylphenyl)-3-(1H-pyrrolo[2,3-b]pyridin-4-yl)-6,7-dihydropyrazolo[1,5-a]pyrazin-5(4H)-yl]but-2-en-1-one] | 337 | 5.72 | 57.1 |
| C[C@@H]1Cn2nc(-c3cccc(C#N)c3)c(-c3ccncc3)c2CN1C(=O)/C=C/CN(C)C [Example 100, 3-[(6R)-5-[(2E)-4-(dimethylamino)but-2-enoyl]-6-methyl-3-(pyridin-4-yl)-4,5,6,7-tetrahydropyrazolo[1,5-a]pyrazin-2-yl]benzonitrile] | 420 | 19.6 | 3.57 |
| C[C@H]1Cn2nc(-c3cccc(C#N)c3)c(-c3ccncc3)c2CN1C(=O)/C=C/CN(C)C [Example 101, 3-[(6S)-5-[(2E)-4-(dimethylamino)but-2-enoyl]-6-methyl-3-(pyridin-4-yl)-4,5,6,7-tetrahydropyrazolo[1,5-a]pyrazin-2-yl]benzonitrile] | 44.6 | 16.8 | 3.5 |

From patent US20260365653A1, “IRREVERSIBLE MUTEGFR INHIBITORS” (Bayer Aktiengesellschaft, priority 2022, published 2026)
